According to the supplement of paper PMC11061612:

Legend:
Carboplatin = compound: C1CC(C1)(C(=O)[O-])C(=O)[O-].N.N.[Pt+2] [Carboplatin]; details: max 10 µM
Procedure, shortened: (§1)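 Cancer cell lines were dosed for 72 hours (final DMSO typically 0.2%) after 24 hours at 37°C and 5% CO2 in 1536-well plates containing 7.5 μl DMEM/F12 or RPMI with 10% FBS. Viability came from CellTiter-Glo 2.0 luminescence, scaled between blank-well and DMSO-well means, and dose responses were fitted to a two-parameter logistic curve with a non-linear mixed effects model. The single-agent IC50 was obtained from this fit.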

AZD5363 = compound: C1CN(CCC1(C(=O)N[C@@H](CCO)C2=CC=C(C=C2)Cl)N)C3=NC=NC4=C3C=CN4 [AZD5363]; details: max 10 µM
Procedure, shortened: as §1

AZD1775 = compound: C=CCn1c(=O)c2cnc(Nc3ccc(N4CCN(C)CC4)cc3)nc2n1-c1cccc(C(C)(C)O)n1 [AZD1775]; details: max 3 µM
Procedure, shortened: as §1

Trametinib = compound: CC(=O)Nc1cccc(-n2c(=O)n(C3CC3)c(=O)c3c(Nc4ccc(I)cc4F)n(C)c(=O)c(C)c32)c1 [Trametinib]; details: max 1 µM
Procedure, shortened: as §1

Paclitaxel = compound: CC(=O)O[C@H]1C(=O)[C@@]2(C)[C@H]([C@H](OC(=O)c3ccccc3)[C@]3(O)C[C@H](OC(=O)[C@H](O)[C@@H](NC(=O)c4ccccc4)c4ccccc4)C(C)=C1C3(C)C)[C@]1(OC(C)=O)CO[C@@H]1C[C@@H]2O [Paclitaxel]; details: max 3 µM
Procedure, shortened: as §1

Palbociclib = compound: CC(=O)c1c(C)c2cnc(Nc3ccc(N4CCNCC4)cn3)nc2n(C2CCCC2)c1=O [Palbociclib]; details: max 10 µM
Procedure, shortened: as §1

AZD1390 = compound: CC(C)n1c(=O)n(C)c2cnc3cc(F)c(-c4ccc(OCCCN5CCCCC5)nc4)cc3c21 [AZD1390]; details: max 0.3 µM
Procedure, shortened: as §1

Venetoclax = compound: CC1(C)CCC(CN2CCN(c3ccc(C(=O)NS(=O)(=O)c4ccc(NCC5CCOCC5)c([N+](=O)[O-])c4)c(Oc4cnc5[nH]ccc5c4)c3)CC2)=C(c2ccc(Cl)cc2)C1 [Venetoclax]; details: max 1 µM
Procedure, shortened: as §1

Dasatinib = compound: CC1=C(C(=CC=C1)Cl)NC(=O)C2=CN=C(S2)NC3=CC(=NC(=N3)C)N4CCN(CC4)CCO [Dasatinib]; details: max 2 µM
Procedure, shortened: as §1

SG3199 = compound: CC1=CN2[C@@H](C1)C=NC3=CC(=C(C=C3C2=O)OC)OCCCCCOC4=C(C=C5C(=C4)N=C[C@@H]6CC(=CN6C5=O)C)OC [SG3199]; details: max 0.001 µM
Procedure, shortened: as §1

AZD2811 = compound: CCN(CCO)CCCOc1ccc2c(Nc3cc(CC(=O)Nc4cccc(F)c4)[nH]n3)ncnc2c1 [AZD2811]; details: max 1 µM
Procedure, shortened: as §1

SN-38 = compound: CCc1c2c(nc3ccc(O)cc13)-c1cc3c(c(=O)n1C2)COC(=O)[C@]3(O)CC [SN-38]; details: max 0.3 µM
Procedure, shortened: as §1

AZD0156 = compound: CN(C)CCCOc1ccc(-c2ccc3ncc4c(c3c2)n(C2CCOCC2)c(=O)n4C)cn1 [AZD0156]; details: max 3 µM
Procedure, shortened: as §1

AZD4320 = compound: CN(CC[C@H](CSC1=CC=CC=C1)NC2=C(C=C(C=C2)S(=O)(=O)NC(=O)C3=CC=C(C=C3)N4CCC(CC4)[C@H](C5=CC=CC=C5C6=CC=C(C=C6)Cl)O)S(=O)(=O)C(F)(F)F)CCO [AZD4320]; details: max 1 µM
Procedure, shortened: as §1

Alisertib = compound: COc1cc(Nc2ncc3c(n2)-c2ccc(Cl)cc2C(c2c(F)cccc2OC)=NC3)ccc1C(=O)O [Alisertib]; details: max 10 µM
Procedure, shortened: as §1

Etoposide = compound: COc1cc([C@@H]2c3cc4c(cc3[C@@H](O[C@@H]3O[C@@H]5CO[C@@H](C)O[C@H]5[C@H](O)[C@H]3O)[C@H]3COC(=O)[C@H]23)OCO4)cc(OC)c1O [Etoposide]; details: max 10 µM
Procedure, shortened: as §1

Gefitinib = compound: COc1cc2ncnc(Nc3ccc(F)c(Cl)c3)c2cc1OCCCN1CCOCC1 [Gefitinib]; details: max 10 µM
Procedure, shortened: as §1

Prexasertib = compound: COc1cccc(OCCCN)c1-c1cc(Nc2cnc(C#N)cn2)n[nH]1 [Prexasertib]; details: max 1 µM
Procedure, shortened: as §1

Doxorubicin = compound: COc1cccc2c1C(=O)c1c(O)c3c(c(O)c1C2=O)C[C@@](O)(C(=O)CO)C[C@@H]3O[C@H]1C[C@H](N)[C@H](O)[C@H](C)O1 [Doxorubicin]; details: max 1 µM
Procedure, shortened: as §1

AZD5153 = compound: COc1nnc2ccc(N3CCC(c4ccc(OCCN5CCN(C)C(=O)[C@H]5C)cc4)CC3)nn12 [AZD5153]; details: max 1 µM
Procedure, shortened: as §1

Lapatinib = compound: CS(=O)(=O)CCNCc1ccc(-c2ccc3ncnc(Nc4ccc(OCc5cccc(F)c5)c(Cl)c4)c3c2)o1 [Lapatinib]; details: max 10 µM
Procedure, shortened: as §1

AZD8186 = compound: C[C@@H](Nc1cc(F)cc(F)c1)c1cc(C(=O)N(C)C)cc2c(=O)cc(N3CCOCC3)oc12 [AZD8186]; details: max 10 µM
Procedure, shortened: as §1

Crizotinib = compound: C[C@@H](Oc1cc(-c2cnn(C3CCNCC3)c2)cnc1N)c1c(Cl)ccc(F)c1Cl [Crizotinib]; details: max 10 µM
Procedure, shortened: as §1

Savolitinib = compound: C[C@@H](c1ccc2nccn2c1)n1nnc2ncc(-c3cnn(C)c3)nc21 [Savolitinib]; details: max 1 µM
Procedure, shortened: as §1

AZD6738 = compound: C[C@@H]1COCCN1C2=NC(=NC(=C2)C3(CC3)[S@](=N)(=O)C)C4=C5C=CNC5=NC=C4 [AZD6738]; details: max 10 µM
Procedure, shortened: as §1

AZD5991 = compound: Cc1c2c(nn1C)CSCc1cc(n(C)n1)CSc1cc(c3ccccc3c1)OCCCc1c(C(=O)O)n(C)c3c-2c(Cl)ccc13 [AZD5991]; details: max 1 µM
Procedure, shortened: as §1

AZD7648 = compound: Cc1cc2ncnn2cc1Nc1ncc2c(n1)n(C1CCOCC1)c(=O)n2C [AZD7648]; details: max 10 µM
Procedure, shortened: as §1

Taselisib = compound: Cc1nc(-c2cn3c(n2)-c2ccc(-c4cnn(C(C)(C)C(N)=O)c4)cc2OCC3)n(C(C)C)n1 [Taselisib]; details: max 10 µM
Procedure, shortened: as §1

Selumetinib = compound: Cn1cnc2c(F)c(Nc3ccc(Br)cc3Cl)c(C(=O)NOCCO)cc21 [Selumetinib]; details: max 10 µM
Procedure, shortened: as §1

SRA737 = compound: N#Cc1cnc(Nc2cc(NC[C@H]3CNCCO3)c(C(F)(F)F)cn2)cn1 [SRA737]; details: max 10 µM
Procedure, shortened: as §1

MK-2206 = compound: NC1(c2ccc(-c3nc4ccn5c(=O)[nH]nc5c4cc3-c3ccccc3)cc2)CCC1 [MK-2206]; details: max 10 µM
Procedure, shortened: as §1

Gemcitabine = compound: Nc1ccn([C@@H]2O[C@H](CO)[C@@H](O)C2(F)F)c(=O)n1 [Gemcitabine]; details: max 0.3 µM
Procedure, shortened: as §1

[1] = compound: O=C(Nc1ccc2[nH]nc(-c3ccncc3)c2c1)[C@@H]1CCN(CC(=O)N2CCN(c3ccc(-c4ncccn4)cc3)CC2)C1; details: max 5 µM
Procedure, shortened: as §1

Olaparib = compound: O=C(c1cc(Cc2n[nH]c(=O)c3ccccc23)ccc1F)N1CCN(C(=O)C2CC2)CC1 [Olaparib]; details: max 10 µM
Procedure, shortened: as §1

5-Fluorouracil = compound: O=c1[nH]cc(F)c(=O)[nH]1 [5-Fluorouracil]; details: max 20 µM
Procedure, shortened: as §1

| Cell Line | IC50, cell viability 72 h (Carboplatin) | IC50, cell viability 72 h (AZD5363) | IC50, cell viability 72 h (AZD1775) | IC50, cell viability 72 h (Trametinib) | IC50, cell viability 72 h (Paclitaxel) | IC50, cell viability 72 h (Palbociclib) | IC50, cell viability 72 h (AZD1390) | IC50, cell viability 72 h (Venetoclax) | IC50, cell viability 72 h (Dasatinib) | IC50, cell viability 72 h (SG3199) | IC50, cell viability 72 h (AZD2811) | IC50, cell viability 72 h (SN-38) | IC50, cell viability 72 h (AZD0156) | IC50, cell viability 72 h (AZD4320) | IC50, cell viability 72 h (Alisertib) | IC50, cell viability 72 h (Etoposide) | IC50, cell viability 72 h (Gefitinib) | IC50, cell viability 72 h (Prexasertib) | IC50, cell viability 72 h (Doxorubicin) | IC50, cell viability 72 h (AZD5153) | IC50, cell viability 72 h (Lapatinib) | IC50, cell viability 72 h (AZD8186) | IC50, cell viability 72 h (Crizotinib) | IC50, cell viability 72 h (Savolitinib) | IC50, cell viability 72 h (AZD6738) | IC50, cell viability 72 h (AZD5991) | IC50, cell viability 72 h (AZD7648) | IC50, cell viability 72 h (Taselisib) | IC50, cell viability 72 h (Selumetinib) | IC50, cell viability 72 h (SRA737) | IC50, cell viability 72 h (MK-2206) | IC50, cell viability 72 h (Gemcitabine) | IC50, cell viability 72 h [1] | IC50, cell viability 72 h (Olaparib) | IC50, cell viability 72 h (5-Fluorouracil) |
| --- | --- | --- | --- | --- | --- | --- | --- | --- | --- | --- | --- | --- | --- | --- | --- | --- | --- | --- | --- | --- | --- | --- | --- | --- | --- | --- | --- | --- | --- | --- | --- | --- | --- | --- | --- |
| BE-13 (T-Lymphoblastic Leukemia) | > 10000 nM | > 10000 nM | 161 nM | > 1000 nM | 14.1 nM | 3380 nM | > 300 nM | > 1000 nM | 809 nM | > 1 nM | 44.1 nM | 16.8 nM | > 3000 nM | 99.9 nM | 155 nM | 2340 nM | > 10000 nM | 20.1 nM | 326 nM | 312 nM | 8670 nM | > 10000 nM | 585 nM | > 1000 nM | 4780 nM | > 1000 nM | > 10000 nM | > 10000 nM | > 10000 nM | 3730 nM | 7600 nM | 89.9 nM | > 5000 nM | > 10000 nM | > 20000 nM |
| SAS (Oral Cavity Carcinoma) | > 10000 nM | > 10000 nM | 511 nM | 191 nM | 77.7 nM | 5610 nM | > 300 nM | > 1000 nM | > 2000 nM | > 1 nM | > 1000 nM | 2.92 nM | > 3000 nM | > 1000 nM | > 10000 nM | 1130 nM | 9890 nM | 59 nM | 226 nM | 115 nM | > 10000 nM | > 10000 nM | > 10000 nM | > 1000 nM | 4420 nM | > 1000 nM | > 10000 nM | 5190 nM | 6140 nM | > 10000 nM | > 10000 nM | 13 nM | 479 nM | > 10000 nM | > 20000 nM |
| SNU-449 (Hepatocellular Carcinoma) | > 10000 nM | > 10000 nM | > 3000 nM | > 1000 nM | > 3000 nM | > 10000 nM | > 300 nM | > 1000 nM | 1260 nM | > 1 nM | > 1000 nM | > 300 nM | > 3000 nM | > 1000 nM | > 10000 nM | > 10000 nM | > 10000 nM | > 1000 nM | > 1000 nM | > 1000 nM | > 10000 nM | > 10000 nM | > 10000 nM | > 1000 nM | > 10000 nM | > 1000 nM | > 10000 nM | > 10000 nM | > 10000 nM | > 10000 nM | > 10000 nM | > 300 nM | > 5000 nM | > 10000 nM | > 20000 nM |
| KYAE-1 (Esophageal Adenocarcinoma) | > 10000 nM | > 10000 nM | > 3000 nM | > 1000 nM | > 3000 nM | > 10000 nM | > 300 nM | > 1000 nM | > 2000 nM | > 1 nM | > 1000 nM | > 300 nM | > 3000 nM | > 1000 nM | > 10000 nM | > 10000 nM | 4580 nM | 829 nM | > 1000 nM | > 1000 nM | 3340 nM | > 10000 nM | > 10000 nM | > 1000 nM | > 10000 nM | > 1000 nM | > 10000 nM | 1880 nM | > 10000 nM | > 10000 nM | > 10000 nM | > 300 nM | > 5000 nM | > 10000 nM | > 20000 nM |
| GAMG (Glioblastoma) | > 10000 nM | 8420 nM | 1690 nM | > 1000 nM | 7.35 nM | > 10000 nM | > 300 nM | > 1000 nM | 1710 nM | > 1 nM | > 1000 nM | 55.5 nM | > 3000 nM | > 1000 nM | 2460 nM | 4440 nM | > 10000 nM | 82.9 nM | 237 nM | > 1000 nM | > 10000 nM | 2980 nM | > 10000 nM | > 1000 nM | > 10000 nM | > 1000 nM | > 10000 nM | 3590 nM | > 10000 nM | > 10000 nM | > 10000 nM | 88.1 nM | > 5000 nM | > 10000 nM | > 20000 nM |
